From patent US6998422B2, “Lipid peroxide-lowering compositions” (Sankyo Company, Limited, priority 2000, dated 2006)

Tested on: blood lipid peroxides
Assay: Blood lipid peroxide levels in serum of beagle dogs after oral dosing for 11 days (Yagi's method, fluorometer)
Settings: relative ratio against averaged pre-dosing level (100), oral capsule once daily, pravastatin 2 mg/kg, mean of 5 dogs
Excerpt: Beagle dogs aged 5 months were purchased from Covance Research Products Inc. and used after 1 month of quarantine and acclimatisation breeding.
The required amounts of pravastatin or each component of the combination drug calculated from the body weight of each dog were weighed and filled in a gelatin capsule purchased from TORPAC Inc. Capsules filled with pravastatin were stocked in a refrigerator and those filled with combination drugs stocked at room temperature until use.
The combination drugs were filled in identical gelatin capsules.
Pravastatin or combination drug capsules were forcibly orally administered to each of the test animals once daily between 9:00 and 12:30. Animals were fasted for 2 or 3 hr prior to administration of the capsules.
The administration period was 11 successive days.
Blood (10 mL) was collected from the superficial radial vein 3 or 4 days prior to administration (−3 or −4 days in the first week prior to capsule administration) and 4 and 8 days after administration of the capsule. Animals were fasted for approximately 18 hr prior to blood collection. Collected blood was placed in a test tube and left at room temperature for 0.5–1 hr and centrifuged (3,000 rpm, for 10 min). The obtained serum was used for assays of blood lipid peroxides according to Yagi's methods.
A fluorometer (Hitachi, Ltd., F3000) was used for assay of the lipid peroxides.
The averaged value in each group was obtained from 5 animals a group.

Row | Structure (SMILES) | Blood Lipid Peroxide Levels after administration, 4 days (pantethine 300 mg/kg) | Blood Lipid Peroxide Levels after administration, 8 days (pantethine 300 mg/kg) | Blood Lipid Peroxide Levels after administration, 4 days (taurine 1,000 mg/kg) | Blood Lipid Peroxide Levels after administration, 8 days (taurine 1,000 mg/kg)
1 | CC[C@H](C)C(=O)O[C@H]1C[C@H](O)C=C2C=C[C@H](C)[C@H](CC[C@@H](O)C[C@@H](O)CC(=O)O)[C@H]21 [Pravastatin alone, (+)-(3R,5R)-3,5-dihydroxy-7-[(1S,2S,6S,8S,8aR)-6-hydroxy-2-methyl-8-[(S)-2-methylbutyryloxy]-1,2,6,7,8,8a-hexahydro-1-naphthyl]heptanoate] | 110.8 | 116.2 | 110.8 | 116.2
2 | NCCS(=O)(=O)O [Taurine alone, Taurine] | – | – | 95.8 | 93.8
